Measured values published in patent US20240246918A1, “COMPOUNDS AND COMPOSITIONS AS EIF4E INHIBITORS AND THE USES THEREOF” (Ribometrix, Inc., priority 2022, published 2024).

Columns and labels:
human eIF4E protein = molecular target: T1, human eIF4E protein (Homo sapiens, UniProt P06730); test: Biochemical competitive binding assay (TR-FRET competition, EDA-m7GDP-ATTO-647N probe); settings: read-out: hEIF4E TR-FRET IC50
T1 construct: purchased Novus NBP-45314
Procedure: The potencies of compounds binding to human eIF4E protein were measured using a 384-well time-resolved fluorescence resonance energy transfer (TR-FRET) competition assay. The assay was performed in assay buffer containing 50 mM HTEPES pH 7.5, 100 mM KCl, 0.02% Tween-20, and 0.1 mg/mL bovine serum albumin (BSA). The reaction volume was 10 μL and each reaction contained 4 nM recombinant 6×HIS-tagged human EIF4E protein (Novus, NBP-45314), 5 nM EDA-m7GDP-ATTO-647N (Jena Bioscience, NU-827-647N), 2.5 nM Europium conjugated Anti-6×HIS antibody (PerkinElmer, AD0402) and varying concentrations of compound. The final DMSO concentration was […].
Compounds were prepared using 11-point, 4-fold serial dilutions in DMSO and 100 nL of diluted compounds were transferred to 384-well assay-ready plates. Recombinant human EIF4E protein at 2× final concentration (8 nM) was pre-incubated with Eu-anti-6×HIS antibody at 2× final concentration (5 nM) for 5 minutes, then 5 μL of the protein solution was added to assay-ready plates. The protein/compound mix was incubated for 15 minutes, after which 5 μL of a solution containing EDA-m7GDP-ATTO-647N probe at 2× final concentration (10 nM) was added. After a subsequent 15-minute incubation, time-resolved fluorescence of assay plates was measured using a Clariostar Plus microplate reader (BMG Labtech) and TR-FRET values were calculated by taking a ratio of the 665 to 620 wavelength signals. After normalization to the average of DMSO control and maximum inhibition control wells, concentration-response data were plotted and standard 4-parameter curve fitting (PEI Signals) was utilized to determine IC50 values.

[1] = system: COLO 205 colorectal tumor cells; test: Tumor cell viability inhibition assay (CellTiter-Glo 2.0, 72 hours); type: cell-based; settings: Homo sapiens, COLO 205, 72 h, COLO 205 cell viability
Procedure: The effect of compound treatment on COLO 205 tumor cell viability was assessed using cellular ATP quantification methods (Promega CellTiter-Glo® 2.0, G9241), as follows. Test compounds were prepared using 11-point, 4-fold serial dilutions in DMSO and 100 nL of diluted compounds were transferred to 384-well assay-ready plates. COLO 205 (ATCC, CCL-222) colorectal tumor cells were seeded to assay-ready plates in RPMI-1640 medium supplemented with 10% FBS at 1500 cells in a volume of 33.5 microliters per well. After 72 hours of compound treatment, cellular ATP was assessed by CellTiter-Glo® 2.0 Cell Viability Assay method, according to the manufacturer's instructions. Luminescence was measured using a Clariostar Plus microplate reader (BMG Labtech) or equivalent. After normalization to the average of DMSO control and maximum inhibition control wells, concentration-response data were plotted and standard 4-parameter curve fitting (PEI Signals) was utilized to determine IC50

T1 sequence (P06730 whole entry): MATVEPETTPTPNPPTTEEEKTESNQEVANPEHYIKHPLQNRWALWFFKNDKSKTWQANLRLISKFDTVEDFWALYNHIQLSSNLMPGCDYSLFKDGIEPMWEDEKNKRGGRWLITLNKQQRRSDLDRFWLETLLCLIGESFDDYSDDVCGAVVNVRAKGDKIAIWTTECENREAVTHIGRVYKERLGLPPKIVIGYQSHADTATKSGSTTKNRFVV

| IC50 (human eIF4E protein) [µM] | IC50 [1] [µM] | Compound |
| --- | --- | --- |
| < 0.1 | < 5 | Cc1cc(-c2cc(Cl)ccc2OCCn2c(C)nc3c(c2=O)C[C@@H](N2CCC(Oc4ccc(F)cc4F)CC2)CC32CC2)c2scc(C(=O)O)c2n1 (single isomer, unassigned) [Compound 613] |
| < 0.1 | < 5 | COC1CCN([C@H]2Cc3c(nc(C)n(CCOc4ccc(Cl)cc4-c4cc(C)nc5c(C(=O)O)csc45)c3=O)C3(CC3)C2)CC1 (single isomer, unassigned) [Compound 371] |
| < 0.1 | < 5 | Cc1cc(-c2cc(Cl)ccc2OCCn2c(C)nc3c(c2=O)C[C@H](N2CCC(c4nccs4)CC2)CC3)c2scc(C(=O)O)c2n1 (single isomer, unassigned) [Compound 475] |
| < 0.1 | < 5 | Cc1nc2c(c(=O)n1CC#Cc1ccc(Cl)cc1-c1ccnc3c(C(=O)O)csc13)CC(N1CCC(OC(F)(F)F)CC1)CC2 (single isomer, unassigned) [Compound 534] |
| < 0.1 | < 5 | Cc1cc(-c2cc(Cl)ccc2OCCn2c(C)nc3c(c2=O)C[C@H](N2CCC(c4ncco4)CC2)CC3)c2scc(C(=O)O)c2n1 (single isomer, unassigned) [Compound 460] |
| < 0.1 | < 5 | CO[C@H]1CCN([C@H]2CCc3nc(C)n(CCOc4ccc(Cl)cc4-c4cc(C)nc5c(C(=O)O)csc45)c(=O)c3C2)CC12CC2 (single isomer, unassigned) [Compound 522] |
| < 0.1 | < 5 | CO[C@H]1CCN([C@@H]2CCc3nc(C)n(CCOc4ccc(Cl)cc4-c4cc(C)nc5c(C(=O)O)csc45)c(=O)c3C2)CC1(C)C (single isomer, unassigned) [Compound 415] |
| < 0.1 | < 5 | Cc1cc(-c2cc(Cl)ccc2OCCn2c(C)nc3c(c2=O)C[C@@H](N2CCC4(CC2)NC(=O)NC4=O)CC3)c2scc(C(=O)O)c2n1 (single isomer, unassigned) [Compound 431] |
| < 0.1 | < 5 | Cc1cc(-c2cc(Cl)ccc2OCCn2c(C)nc3c(c2=O)C[C@@H](N2CCC(n4cc(Cl)cn4)CC2)CC3)c2scc(C(=O)O)c2n1 (single isomer, unassigned) [Compound 109] |
| 0.1 to 0.5 | 5 to 20 | COC1CCN(C2CCc3nc(C)n(CCOc4ccc(Cl)cc4-c4cc(C)nc5c(C(N)=O)csc45)c(=O)c3C2)CC1 (stereo not drawn) [Compound 133] |
| < 0.1 | < 5 | Cc1cc(-c2cc(Cl)ccc2OCCn2c(C)nc3c(c2=O)C[C@@H](N2C[C@@H]4CC[C@H]2CC4OC(F)(F)F)CC3)c2scc(C(=O)O)c2n1 (single isomer, unassigned) [Compound 498] |
| < 0.1 | < 5 | Cc1cc(-c2cc(Cl)ccc2OCCn2c(C)nc3c(c2=O)C[C@H](N2CCC[C@H](OC(F)(F)F)C2)CC3)c2scc(C(=O)O)c2n1 (single isomer, unassigned) [Compound 457] |
| < 0.1 | > 20 | Cc1cc(-c2cc(Cl)ccc2OCCn2c(C)nc3c(c2=O)C[C@@H](N2CCCC[C@@H]2C)CC3)c2scc(C(=O)O)c2n1 (single isomer, unassigned) [Compound 409] |
| < 0.1 | > 20 | Cc1cc(-c2cc(Cl)ccc2OCCn2c(C)nc3c(c2=O)C[C@@H](N2CCCC[C@@H]2c2cccc(F)c2)CC3)c2scc(C(=O)O)c2n1 (single isomer, unassigned) [Compound 543] |
| < 0.1 | 5 to 20 | Cc1cc(-c2cc(Cl)ccc2OCCn2c(C)nc3c(c2=O)CC(N2CCC(OC(F)(F)F)CC2)CC3(C)C)c2scc(C(=O)O)c2n1 (single isomer, unassigned) [Compound 442, 7-(5-chloro-2-(2-(2,8,8-trimethyl-4-oxo-6-(4-(trifluoromethoxy)piperidin-1-yl)-5,6,7,8-tetrahydroquinazolin-3(4H)-yl)ethoxy)phenyl)-5-methylthieno[3,2-b]pyridine-3-carboxylic acid] |
